Where two headings read alike, the source gives them in different places.
Tests used:
[1] = Micellar drug loading by reverse phase HPLC; assay type: physicochemical; settings: PEG-PE micelles, PEG-PE 13.07 mg/mL, n = 3 with SD
Method: Drug incorporation efficiency was measured by reverse phase HPLC using an Xbridge C18 ([…]) column (Waters Corporation, Milford, Mass.) on a Hitachi Elite LaChrom HPLC with autosampler (Pleasanton, Calif.). The HPLC method was modified from previously published method. Skidan I et al., J Chromatogr B Analyt Technol Biomed Life Sci 879:1610-1616 (2011). The mobile phase consisted of either 70:30 acetonitrile:water (DM-PIT-1) or 60:40 acetonitrile:water (NCL-176, NCL-179, NCL-198, NCL-240) with a flow rate of 1 mL/min. Detection of drug was performed at a wavelength corresponding to a peak on the absorption spectrum (DM-PIT-1: 320 nm, NCL-176: 260 nm, NCL-179: 295 nm, NCL-198: 295 nm, NCL-240: 300 nm). Sample injections were kept constant at 50 μL and the sample runtime was 10 min. Concentration of drug was determined by measuring the area under curve of the peak. Standard curves of stock drug in acetonitrile from concentrations of 10 μg/mL to 15 ng/mL were used to determine incorporation of drug in micelles. 5 μL of dialyzed drug-loaded micelles were diluted in 495 μL acetonitrile to destroy micelles.

[2] = Micellar drug release by dialysis; assay type: physicochemical; settings: 37° C.
Method: Drug-loaded micelles were analyzed for their in vitro drug release profile at 37° C. in 1×PBS pH 7.4 over 48 hrs. Micelles were prepared as described previously. 500 μL of drug-loaded micelles were aliquoted into Spectra/Pro® regenerated cellulose dialysis membranes with a MWCO of 1,000 Da and dialyzed against a large excess of 1×PBS pH 7.4. At predetermined times, dialysis bags were opened and aliquots of sample were taken and diluted with 200 μL acetonitrile. Drug concentration was determined by HPLC using previously described methods.

[3] = tested on: A2780 human ovarian cancer cells; experiment: Cell viability of A2780 cells, ATP assay; assay type: cell-based; settings: A2780, 24 h; for cell viability in combination with TRAIL: versus compound alone; for EC50: Homo sapiens
Method: (§1) A2780 human ovarian cancer cells were maintained in culture at 37° C., 5% CO2, complete medium for 24 h in the presence of various final concentrations of DM-PIT-1, YK-NCL-176, YK-NCL-198, or NK-YCL-240, each in DMSO, with or without 1 μg/mL TRAIL. DMSO alone was used as a negative control. Following the incubation, cell viability was measured using an ATP assay.
as §1, with “YK-NCL-217, YK-NCL-218, NK-YCL-219, YK-NCL-220, YK-NCL-234,” for “YK-NCL-176, YK-NCL-198,”, “YK-NCL-241,” for “NK-YCL-240,”

[4] = tested on: A2780 cells; experiment: In vitro wound closure (cell migration), A2780; assay type: cell-based, human; settings: A2780, up to 76 h
Method: A2780 cells and T47D cells were grown to confluence in separate cultures under conditions of 37° C., 5% CO2, and complete medium. At time zero, a pipette tip was dragged across the cells, producing a linear defect in the confluent layer of cells. Medium was then supplemented with various concentrations of DM-PIT-1, YK-NCL-176, or YK-NCL-240, or an equivalent volume of DMSO alone, and cells were maintained in culture for an additional 76 h. Linear defects were viewed with a microscope at 0, 21, 47, 69, and 76 h following addition of test agent, and the width of the defect was quantitated at each time point. This in vitro assay represents a model of wound closure.

[5] = tested on: A2780 ovarian carcinoma; experiment: A2780 cell viability, CellTiter-Blue, free and micellar formulations; assay type: cell-based, human
Method: Cell viability of A2780 ovarian carcinoma was measured using CellTiter-Blue® (Promega, Madison, Wis.) viability assay. Briefly, cells were seeded in 96-well plates according to proper cell densities (3,000-5,000 cells). After 24 h incubation in 5% CO2 at 37° C., cells were treated with formulations at various concentrations for 24 h in serum complete media. After 24 h treatment, media was removed, the wells were washed with serum complete media and replaced with 50 μL media and 10 μL CellTiter-Blue®. Cell viability was evaluated after 4 h of incubation at 37° C. at 5% CO2 by measuring the fluorescence (ex. 550 nm, em. 590 nm) using a Synergy HT multi-detection microplate reader (Biotek, Winooski, Vt.).

[6] = tested on: U87MG human glioblastoma cells; experiment: Cell viability of U87MG cells, ATP assay; assay type: cell-based; settings: Homo sapiens, U-87 MG, 24 h
Method: U87MG human glioblastoma cells were maintained in culture at 37° C., 5% CO2, complete medium for 24 h in the presence of various final concentrations of YK-NCL-176, YK-NCL-177, YK-NCL-178, YK-NCL-179, YK-NCL-180, YK-NCL-183, YK-NCL-184, YK-NCL-185, YK-NCL-186, YK-NCL-187, YK-NCL-188, YK-NCL-189, YK-NCL-190, YK-NCL-191, YK-NCL-192, YK-NCL-193, YK-NCL-194, YK-NCL-195, YK-NCL-196, YK-NCL-197, NK-YCL-198, or YK-NCL-199, each in DMSO, with or without 1 μg/mL TRAIL. DMSO alone was used as a negative control. Following the incubation, cell viability was measured using an ATP assay.

[7] = in DMSO, without TRAIL, read-out: EC50 alone
[8] = with 1 μg/mL TRAIL, read-out: EC50 with TRAIL

Molecule | EC50 [6, 7] [µM] | EC50 [6, 8] [µM] | further results
Cc1cc(C)cc(C(=O)NC(=S)Nc2cc([N+](=O)[O-])ccc2O)c1 [DM-PIT-1, N-[(2-hydroxy-5-nitrophenyl)amino]carbonothioyl-3,5-dimethylbenzamide, reference compound] | – | – | Loading Eff. [1]: slightly lower loading; drug released from micelles ([2]; 1×PBS pH 7.4, at 10 h): completely released; concentration at which cell viability was reduced by at least 50 percent ([3]; alone): 25 µM; cell viability in combination with TRAIL ([3]; with 1 μg/mL TRAIL): further reduced cell viability; EC50 [3, 7]: 30.5 µM; EC50 [3, 8]: 18.7 µM
O=C(c1ccccc1)c1cn(-c2cc(Cl)ccc2O)nn1 [YK-NCL-176, (1-(5-Chloro-2-hydroxyphenyl)-1H-1,2,3-triazol-4-yl)(phenyl)methanone] | 104 | 51.6 | inhibition of cell migration (wound closure) [4]: significantly more effectively than DM-PIT-1; Loading Eff. [1]: slightly lower loading; drug released from micelles ([2]; 1×PBS pH 7.4, at 10 h): completely released; cytotoxicity on addition of TRAIL to the formulation ([5]; A2780, micellar formulation plus TRAIL): markedly increased cytotoxicity; concentration at which cell viability was reduced by at least 50 percent ([3]; alone): 25 µM; cell viability in combination with TRAIL ([3]; with 1 μg/mL TRAIL): further reduced cell viability
COc1ccc(Cl)cc1-n1nncc1C(=O)c1ccccc1 [YK-NCL-177] | > 100 | > 100 | –
COc1ccc(Cl)cc1-n1cc(C(=O)c2ccccc2)nn1 [YK-NCL-178] | > 100 | > 100 | –
Oc1ccc(Cl)cc1-n1cc(C(O)(c2ccccc2)c2cn(-c3cc(Cl)ccc3O)nn2)nn1 [YK-NCL-179, 2,2′-(4,4′-(hydroxy(phenyl)methylene)bis(1H-1,2,3-triazole-4,1-diyl))bis(4-chlorophenol)] | 36.7 | 20.4 | drug released from micelles ([2]; 1×PBS pH 7.4, after 48 h): 40%; cytotoxicity as free compound compared to DM-PIT-1 ([5]; A2780, 24 h, free compound): improved cytotoxicity properties
COc1ccc(Cl)cc1-n1cc(C(O)(c2ccccc2)c2cn(-c3cc(Cl)ccc3OC)nn2)nn1 [YK-NCL-180] | > 100 | > 100 | –
Cc1cc(C)cc(C(=O)c2cn(-c3ccc(Cl)cc3O)nn2)c1 [YK-NCL-183] | > 100 | 64.4 | –
Cc1ccc(O)c(-n2cc(C(=O)c3ccccc3)nn2)c1 [YK-NCL-184] | > 100 | > 100 | –
Cc1cccc(O)c1-n1cc(C(=O)c2ccccc2)nn1 [YK-NCL-185] | 8.1 | 8 | –
O=C(c1ccc2ccccc2c1)c1cn(-c2cc(Cl)ccc2O)nn1 [YK-NCL-186] | > 100 | > 100 | –
Cc1cccc(O)c1-n1cc(C(=O)c2ccc3ccccc3c2)nn1 [YK-NCL-187] | 85.2 | 74.9 | –
Cc1ccc(O)c(-n2cc(C(=O)c3ccc4ccccc4c3)nn2)c1 [YK-NCL-188] | > 100 | > 100 | –
O=C(c1ccc2ccccc2c1)c1cn(-c2ccc([N+](=O)[O-])cc2O)nn1 [YK-NCL-189] | > 100 | > 100 | –
Cc1cc(C)cc(C(=O)c2cn(-c3cc(Cl)ccc3O)nn2)c1 [YK-NCL-190] | 57.8 | 30.6 | –
O=C(c1ccccc1)c1cn(-c2ccc(Cl)cc2O)nn1 [YK-NCL-191] | 48.9 | 42.3 | –
Cc1cc(C)cc(C(=O)c2cn(-c3c(C)cccc3O)nn2)c1 [YK-NCL-192] | 104 | 98.4 | –
Cc1cc(C)cc(C(=O)c2cn(-c3cc(C)ccc3O)nn2)c1 [YK-NCL-193] | > 100 | > 100 | –
Cc1cc(C)cc(C(=O)c2cn(-c3ccc([N+](=O)[O-])cc3O)nn2)c1 [YK-NCL-194] | 89.1 | 70.5 | –
CC(C)c1ccc(C(=O)c2cn(-c3cc(Cl)ccc3O)nn2)cc1 [YK-NCL-195] | 64.1 | 41.6 | –
Cc1cccc(O)c1-n1cc(C(=O)c2ccc(C(C)C)cc2)nn1 [YK-NCL-196] | > 100 | > 100 | –
Cc1ccc(O)c(-n2cc(C(=O)c3ccc(C(C)C)cc3)nn2)c1 [YK-NCL-197] | > 100 | > 100 | –
CC(C)c1ccc(C(=O)c2cn(-c3ccc([N+](=O)[O-])cc3O)nn2)cc1 [YK-NCL-199] | > 100 | 95.3 | –
Cc1cccc(O)c1-n1cc(C(O)(c2cc(C(F)(F)F)cc(C(F)(F)F)c2)c2cn(-c3c(C)cccc3O)nn2)nn1 [YK-NCL-217] | – | – | EC50 [3, 7]: 50.9 µM; EC50 [3, 8]: 13.5 µM
Cc1cccc(O)c1-n1cc(C(O)(c2ccccc2)c2cn(-c3c(C)cccc3O)nn2)nn1 [YK-NCL-218] | – | – | EC50 [3, 7]: > 100 µM; EC50 [3, 8]: 22.8 µM
Cc1ccc(O)c(-n2cc(C(O)(c3ccccc3)c3cn(-c4cc(C)ccc4O)nn3)nn2)c1 [YK-NCL-219] | – | – | EC50 [3, 7]: 24.1 µM; EC50 [3, 8]: 9.2 µM
Cc1cc(C)cc(C(O)(c2cn(-c3c(C)cccc3O)nn2)c2cn(-c3c(C)cccc3O)nn2)c1 [YK-NCL-220] | – | – | EC50 [3, 7]: > 100 µM; EC50 [3, 8]: 16.9 µM
O=C(NCc1cn(-c2cc(Cl)ccc2O)nn1)c1cc(C(F)(F)F)cc(C(F)(F)F)c1 [YK-NCL-234] | – | – | EC50 [3, 7]: 16.2 µM; EC50 [3, 8]: 14 µM
Oc1ccc(Cl)cc1-n1cc(CC(O)(c2ccccc2)c2cn(-c3cc(Cl)ccc3O)nn2)nn1 (stereo not drawn) [YK-NCL-241] | – | – | EC50 [3, 7]: > 100 µM; EC50 [3, 8]: > 100 µM
TRAIL: Tumor necrosis factor (TNF)-related apoptosis-inducing ligand; recombinant His6-tagged human TRAIL produced in E. coli (protein, UniProt P50591 1-281, looked up, His6 tag, Tumor necrosis factor (TNF)-related apoptosis-inducing ligand; recombinant His6-tagged human TRAIL produced in E. coli) Tumor necrosis factor ligand …: MAMMEVQGGPSLGQTCVLIVIFTVLLQSLCVAVTYVYFTNELKQMQDKYSKSGIACFLKEDDSYWDPNDEESMNSPCWQVKWQLRQLVRKMILRTSEETISTVQEKQQNISPLVRERGPQRVAAHITGTRGRSNTLSSPNSKNEKALGRKINSWESSRSGHSFLSNLHLRNGELVIHEKGFYYIYSQTYFRFQEEIKENTKNDKQMVQYIYKYTSYPDPILLMKSARNSCWSKDAEYGLYSIYQGGIFELKENDRIFVSVTNEHLIDMDHEASFFGAFLVG | – | – | effect on cell viability ([3]; alone, 1 μg/mL): essentially no effect on cell viability
